Data: patent US20080242726A1 (priority 2004, published 2008)

What was measured:
[1] = test system: serum cholesterol; test: Effects on cholesterol levels in male baboons; assay type: in vivo; conditions: 1.5 mg/kg for 12 days
From the text: (§1) The samples analyzed were sera taken on the day of first treatment before being given test article (day 0), after 12 days of treatment (day 12) and 7 days after the last treatment (end or wash-out).

[2] = test system: total serum testosterone; test: Effects of Clomids on serum testosterone in male baboons; assay type: in vivo; conditions: 1.5 mg/kg for 12 days
From the text: as §1

[3] = Comparison of Androxal to Androgel in hypogonadal men: side effects; assay type: in vivo; conditions: two week exposure, compared with placebo
Protocol: (§2) A placebo controlled challenge study was conducted at the Advanced Biological Research, Inc. (ABR) Clinical Research Center in Hackensack, N.J. to compare orally administered Androxal™ (trans-clomiphene) to Androgel® (testosterone) in hypogonadal men. Androgel® (Solvay Pharmaceuticals, Inc.) consists of a cream that administers exogenous testosterone in a transdermal matrix.
(§3) The study enrolled 62 hypogonadal men with testosterone levels less than 300 ng/dl (normal 298-1034 ng/dl) that were randomized into 6 different arms, three doses of Androxal™ (12.5 mg, 25 mg, and 50 mg), placebo, and both high and low doses of Androgel®. Half of the men in each of the Androxal™ and placebo arms were randomized into cohorts that underwent in-clinic sessions on days 1 and 14 to determine pharmacokinetic parameters for Androxal™ as well as cyclical changes in testosterone. The placebo and Androxal™ doses were administered in a double blind fashion. The Androgel® cream was administered in an open label fashion. Half of the Androgel® patients underwent in-clinic sessions similar to the other patients in the study. Following the two week drug exposure patients were followed for an additional seven to ten days to determine the status of their testosterone levels.

[4] = test system: total testosterone; test: Comparison of Androxal to Androgel in hypogonadal men: total testosterone; assay type: in vivo; conditions: two weeks
Protocol: as §2, §3

[5] = From the text: as §1
[6] = test system: serum prolactin (PRL); test: Effects on serum prolactin (PRL) in male baboons; assay type: in vivo; conditions: 1.5 mg/kg for 12 days
From the text: as §1

Question: For `CCN(CC)CCOc1ccc(C(=C(Cl)c2ccccc2)c2ccccc2)cc1` [Clomid, clomiphene], which “trend of serum cholesterol” value [1] is on record?
Answer: slight increase

Question: And the “effect on total serum testosterone” value [2]?
Answer: more variable total testosterone levels

Question: For `CCN(CC)CCOc1ccc(/C(=C(\Cl)c2ccccc2)c2ccccc2)cc1` [Enclomid, trans-clomiphene], which side effects [3] is on record?
Answer: no side effects

Question: And the “trend of serum cholesterol” value [1]?
Answer: tended to decrease

Question: And the “effect on total serum testosterone” value [2]?
Answer: significant increases

Question: What about the “mean increase of testosterone from baseline” value (from here on “mean increase of testosterone”) ([4]; high dose 50 mg oral) of the same molecule?
Answer: 294 ng/dL

Question: What about the “mean increase of testosterone” value ([4]; low dose 12.5 mg oral) of the same molecule?
Answer: 169 ng/dL

Question: And the “mean increase of testosterone” value ([4]; mid dose 25 mg oral)?
Answer: 247 ng/dL

Question: What about the effect on platelets ([5]; 12-day treatment) of the same molecule?
Answer: clear effect

Question: And the counts of eosinophiles ([5]; male baboons)?
Answer: raising the counts

Question: And the “serum prolactin (PRL) during the study” value [6]?
Answer: decrease

Question: What does the source list for `CCN(CC)CCOc1ccc(/C(=C(/Cl)c2ccccc2)c2ccccc2)cc1` [Zuclomid, cis-clomiphene]?
Answer: trend of serum cholesterol [1]: tended to increase; effect on total serum testosterone [2]: did not raise total serum testosterone to any extent
